US12661410B2, “Compounds for targeted degradation of RET” (C4 Therapeutics, Inc., priority 2020, dated 2026)
Where a chain is given by its changes, count along the chain named.

Experiments:
RET(KD: 658-1114 G810R) = biological target: T1, RET(KD: 658-1114 G810R) (Homo sapiens, UniProt P07949, G810R); assay: HiBiT-Degradation, RET G810R degradation assay (Nano-Glo HiBiT Lytic), 293T.165 cells; type: cell-based; conditions: for Emax / DC50: 6.0 hours; for Emax: % remaining protein, read-out: 293T.165 RET(KD: 658-1114 G810R) 6.0 hours (Emax); for DC50: half-maximal degradation concentration, read-out: 293T.165 RET(KD: 658-1114 G810R) 6.0 hours (DC50)
T1 construct: 658-1114; expressed in transfected cells; host or cells: 293T.165 (293T cells, generated in-house)
T1 sequence (P07949 658-1114 G810R): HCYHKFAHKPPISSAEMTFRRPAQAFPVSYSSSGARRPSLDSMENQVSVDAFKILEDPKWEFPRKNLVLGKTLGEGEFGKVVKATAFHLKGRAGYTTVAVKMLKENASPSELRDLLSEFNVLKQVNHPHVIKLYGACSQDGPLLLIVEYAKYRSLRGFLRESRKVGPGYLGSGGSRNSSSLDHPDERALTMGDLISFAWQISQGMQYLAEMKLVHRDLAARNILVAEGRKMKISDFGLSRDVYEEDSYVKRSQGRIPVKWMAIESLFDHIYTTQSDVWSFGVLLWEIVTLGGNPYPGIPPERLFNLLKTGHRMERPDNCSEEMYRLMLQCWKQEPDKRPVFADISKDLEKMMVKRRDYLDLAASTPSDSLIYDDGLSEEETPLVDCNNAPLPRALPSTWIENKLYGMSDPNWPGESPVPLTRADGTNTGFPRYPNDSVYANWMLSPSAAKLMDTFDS
Method in brief: (§1)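 HEK293T lines stably expressing HiBiT-tagged RET kinase domain (WT: 293T.144; G810R: 293T.165) were treated with degraders for 6 h in duplicate, 11-point half-log series from 10 μM top dose. Lysis with Nano-Glo HiBiT Lytic reagent, luminescence read; DC50 and Emax (% remaining protein) derived from dose-response curves.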

RET (658-1114) = biological target: T2, RET (658-1114) (Homo sapiens, UniProt P07949); assay: HiBiT-Degradation, RET wild-type degradation assay (Nano-Glo HiBiT Lytic), 293T.144 cells; type: cell-based; conditions: for Emax / DC50: 6.0 hours; for Emax: % remaining protein, read-out: 293T.144 RET (658-1114) 6.0 hours (Emax); for DC50: half-maximal degradation concentration, read-out: 293T.144 RET (658-1114) 6.0 hours (DC50)
T2 construct: 658-1114; expressed in transfected cells; host or cells: 293T.144 (293T cells, generated in-house)
T2 sequence (P07949 658-1114): T1 sequence (P07949 658-1114 G810R) with R153G
Method in brief: as §1

| SMILES | 293T.165 RET(KD: 658-1114 G810R) 6.0 hours (IP) [nM] (RET(KD: 658-1114 G810R)) | Emax (RET(KD: 658-1114 G810R)) [%] | DC50 (RET(KD: 658-1114 G810R)) [nM] | 293T.144 RET (658-1114) 6.0 hours (IP) [nM] (RET (658-1114)) | Emax (RET (658-1114)) [%] | DC50 (RET (658-1114)) [nM] |
| --- | --- | --- | --- | --- | --- | --- |
| COc1ccc(CC2(OC)CCN(c3ccc(-c4nc(-c5cnn([C@H]6CC[C@@H](N7CCN(c8ccc(NC9CCC(=O)NC9=O)cc8F)CC7)CC6)c5)cn5ncc(C#N)c45)cn3)CC2)cn1 (single isomer, unassigned) [Compound 147, 6-(1-((1s, 4s)-4-(4-(4-((2,6-Dioxopiperidin-3-yl)amino)-2-fluorophenyl)piperazin-1-yl)cyclohexyl)-1H-pyrazol-4-yl)-4-(6-(4-methoxy-4-((6-methoxypyridin-3-yl)methyl)piperidin-1-yl)pyridin-3-yl)pyrazolo[1,5-a]pyrazine-3-carbonitrile] | ++++ (<50 nM = ++++) | < 30 | < 100 | ++++ (<50 nM = ++++) | < 30 | < 50 |
| N#Cc1cnn2cc(-c3cnn([C@H]4CC[C@H](N5CCC(c6ccc(NC7CCC(=O)NC7=O)cc6F)CC5)CC4)c3)nc(-c3ccc(N4CCC5(CC4)OCc4cccnc45)nc3)c12 (single isomer, unassigned) [Compound 148, 4-(6-(5H-Spiro[furo[3,4-b]pyridine-7,4′-piperidin]-1′-yl)pyridin-3-yl)-6-(1-((1r, 4r)-4-(4-(4-((2,6-dioxopiperidin-3-yl)amino)-2-fluorophenyl)piperidin-1-yl)cyclohexyl)-1H-pyrazol-4-yl)pyrazolo[1,5-a]pyrazine-3-carbonitrile] | ++++ (<50 nM = ++++) | < 30 | < 50 | ++++ (<50 nM = ++++) | < 30 | < 50 |
| N#Cc1cnn2cc(-c3cnn(C4CCC(N5CCN(c6ccc(NC7CCC(=O)NC7=O)cc6F)CC5)CC4)c3)nc(-c3ccc(N4C[C@H]5COC[C@@H](C4)N5CC4CCC(F)(F)CC4)nc3)c12 (single isomer, unassigned) [Compound 150] | ++++ (<50 nM = ++++) | < 30 |  | ++++ (<50 nM = ++++) | < 30 | < 50 |
| N#Cc1cnn2cc(-c3cnn([C@H]4CC[C@@H](N5CCN(c6ccc(NC7CCC(=O)NC7=O)cc6F)CC5)CC4)c3)nc(-c3ccc(N4C[C@H]5COC[C@@H](C4)N5Cc4ccc(F)cn4)nc3)c12 (single isomer, unassigned) [Compound 151] | ++++ (<50 nM = ++++) | < 30 | < 50 | ++++ (<50 nM = ++++) | < 30 | < 50 |
| COc1ccc(CN2[C@@H]3COC[C@H]2CN(c2ccc(-c4nc(-c5cnn([C@H]6CC[C@@H](N7CCN(c8cc9c(cc8F)c(N8CCC(=O)NC8=O)nn9C)CC7)CC6)c5)cn5ncc(C#N)c45)cn2)C3)cn1 (single isomer, unassigned) [Compound 152] | ++++ (<50 nM = ++++) | < 30 | < 50 | ++++ (<50 nM = ++++) | < 30 | < 50 |
| Cn1nc(N2CCC(=O)NC2=O)c2cc(F)c(N3CCN([C@H]4CC[C@@H](n5cc(-c6cn7ncc(C#N)c7c(-c7ccc(N8C[C@H]9COC[C@@H](C8)N9Cc8ccc(=O)[nH]c8)nc7)n6)cn5)CC4)CC3)cc21 (single isomer, unassigned) [Compound 153] | ++++ (<50 nM = ++++) | < 30 | < 100 | ++++ (<50 nM = ++++) | < 30 | < 50 |
| N#Cc1cnn2cc(-c3cnn([C@H]4CC[C@H](N5CCC(c6ccc(NC7CCC(=O)NC7=O)cc6F)CC5)CC4)c3)nc(-c3ccc(N4CC5COCC(C4)N5Cc4ccccn4)nc3)c12 (single isomer, unassigned) [Compound 154, 6-[1-[4-[4-[4-[(2,6-dioxo-3-piperidyl)amino]-2-fluoro-phenyl]-1-piperidyl]cyclohexyl]pyrazol-4-yl]-4-[6-[9-(2-pyridylmethyl)-3-oxa-7,9-diazabicyclo[3.3.1]nonan-7-yl]-3-pyridyl]pyrazolo[1,5-a]pyrazine-3-carbonitrile] | ++++ (<50 nM = ++++) | < 30 | < 50 | ++++ (<50 nM = ++++) | < 30 | < 50 |
| N#Cc1cnn2cc(-c3cnn([C@H]4CC[C@H](N5CCN(c6ccc(N[C@H]7CCC(=O)NC7=O)cc6F)CC5)CC4)c3)nc(-c3ccc(N4CC5COCC(C4)N5Cc4ccccn4)nc3)c12 (single isomer, unassigned) [Compound 155] | ++++ (<50 nM = ++++) | < 30 | < 50 | ++++ (<50 nM = ++++) | < 30 | < 50 |
| N#Cc1cnn2cc(-c3cnn([C@H]4CC[C@H](N5CCN(c6ccc(N[C@@H]7CCC(=O)NC7=O)cc6F)CC5)CC4)c3)nc(-c3ccc(N4CC5COCC(C4)N5Cc4ccccn4)nc3)c12 (single isomer, unassigned) [Compound 156] | ++++ (<50 nM = ++++) | < 30 | < 50 | ++++ (<50 nM = ++++) | < 30 | < 50 |
| N#Cc1cnn2cc(-c3cnn([C@H]4CC[C@H](N5CCN(c6ccc(NC7CCC(=O)NC7=O)cc6F)CC5)CC4)c3)nc(-c3ccc(N4CC5COCC(C4)N5Cc4ccccn4)nc3)c12 (single isomer, unassigned) [Compound 157, 6-(1-((1r, 4r)-4-(4-(4-((2,6-dioxopiperidin-3-yl)amino)-2-fluorophenyl)piperazin-1-yl)cyclohexyl)-1H-pyrazol-4-yl)-4-(6-(9-(pyridin-2-ylmethyl)-3-oxa-7,9-diazabicyclo[3.3.1]nonan-7-yl)pyridin-3-yl)pyrazolo[1,5-a]pyrazine-3-carbonitrile] | ++++ (<50 nM = ++++) | < 30 | < 50 | ++++ (<50 nM = ++++) | < 30 | < 50 |
| CC(C)(C)CC(=O)N1[C@@H]2COC[C@H]1CN(c1ccc(-c3nc(-c4cnn([C@H]5CC[C@@H](N6CCN(c7ccc(NC8CCC(=O)NC8=O)cc7F)CC6)CC5)c4)cn4ncc(C#N)c34)cn1)C2 (single isomer, unassigned) [Compound 158] | ++++ (<50 nM = ++++) | < 30 | < 50 | ++++ (<50 nM = ++++) | < 30 | < 50 |
| CC(C)(C)OC(=O)N1[C@@H]2COC[C@H]1CN(c1ccc(-c3nc(-c4cnn([C@H]5CC[C@@H](N6CCN(c7ccc(NC8CCC(=O)NC8=O)cc7F)CC6)CC5)c4)cn4ncc(C#N)c34)cn1)C2 (single isomer, unassigned) [Compound 159] | ++++ (<50 nM = ++++) | < 30 | < 50 | ++++ (<50 nM = ++++) | < 30 | < 50 |
